Results reported in article PMC6538996, “Evaluating the In Vivo Specificity of [^18F]UCB-H for the SV2A Protein, Compared with SV2B and SV2C in Rats Using microPET” (Molecules, 2019).

Tests used:
[1] = biological target: T1, [^18F]UCB-H binding in rat brain (Rattus norvegicus, UniProt Q02563); assay: microPET blocking assay of [18F]UCB-H (Vt, Logan plot, PBIF) after pre-treatment with competitors; format: in vivo, Sprague Dawley rats; settings: mean ± SEM, n = 5, SV2AL 10 mg/kg, SV2BL and SV2CL 3 mg/kg i.p.
T1 construct: from tissue; host or cells: brain of living Sprague Dawley rats (microPET)
T1 sequence (Q02563 whole entry): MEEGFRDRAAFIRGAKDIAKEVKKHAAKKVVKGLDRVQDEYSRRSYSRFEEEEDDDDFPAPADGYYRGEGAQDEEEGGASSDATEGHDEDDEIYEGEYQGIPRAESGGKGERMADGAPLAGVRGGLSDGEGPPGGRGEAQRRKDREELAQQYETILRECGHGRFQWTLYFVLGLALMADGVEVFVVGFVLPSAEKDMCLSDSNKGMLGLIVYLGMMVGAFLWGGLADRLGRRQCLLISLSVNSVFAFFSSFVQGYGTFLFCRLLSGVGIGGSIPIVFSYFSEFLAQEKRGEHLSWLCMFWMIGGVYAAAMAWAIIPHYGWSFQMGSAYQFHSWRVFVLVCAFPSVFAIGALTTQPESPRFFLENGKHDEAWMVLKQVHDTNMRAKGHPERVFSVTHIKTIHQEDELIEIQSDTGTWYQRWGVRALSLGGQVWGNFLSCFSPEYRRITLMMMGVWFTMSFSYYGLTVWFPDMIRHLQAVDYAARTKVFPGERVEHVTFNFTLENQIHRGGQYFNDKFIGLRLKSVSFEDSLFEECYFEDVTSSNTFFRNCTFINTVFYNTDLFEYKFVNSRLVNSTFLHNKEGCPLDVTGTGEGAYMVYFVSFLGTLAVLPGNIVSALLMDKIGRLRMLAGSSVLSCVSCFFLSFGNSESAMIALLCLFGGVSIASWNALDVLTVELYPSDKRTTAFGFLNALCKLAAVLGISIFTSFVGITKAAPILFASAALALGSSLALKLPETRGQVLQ
Experimental: The competitors were prepared daily in a vehicle composed of distilled water containing 1% methyl cellulose (viscosity: 15 cP, Sigma-Aldrich, Overijse, Belgium) and 5% dimethyl sulphoxide (DMSO, Sigma-Aldrich, Belgium). The concentrations differed depending on the product specifications and their respective pharmacokinetics, provided by UCB Pharma s.a. The dosing used was 10 mg/kg for SV2AL, 3 mg/kg for SV2BL, and 3 mg/kg for SV2CL. All solutions were administered through the intraperitoneal (i.p.) route in a total volume of 1 mL per kg of body weight. The animals used as a control group (vehicle) received an equal volume of vehicle through the same route of administration.
The animals (n = 5 per group) were anesthetized using 4% isoflurane in air at a flow rate of 1 L/min during induction and 1.5% to 2% isoflurane in air at 0.6 L/min during maintenance. Respiration rate and rectal temperature were continuously measured using a physiological monitoring system (Minerve, France). The temperature was maintained at 37 ± 0.5 °C using an air warming system. […]
PMOD software (Version 3.6, PMOD Technologies, Zurich, Switzerland) was used to process the imaging data. […] Finally, the inverse normalization parameters were calculated and applied to the PMOD rat brain atlas to bring it in the individual PET space. […]

human SV2A = biological target: T2, human SV2A (Homo sapiens, UniProt Q7L0J3); assay: In vitro radioligand binding assay, hSV2A (HEK293 membranes, 3H-UCB30889); settings: 37 °C, mean n = 3 to 10, read-out: pIC50 SV2A (converted)
T2 construct: expressed in transfected cells; crude membranes
T2 sequence (Q7L0J3 whole entry): as the sequence (Q02563 whole entry) above, with E53D, A62S, A71T, D144E, T154A, S440G, A482S, V572I, L634M counted along it
Experimental: Reagents and reference compounds used were of analytical grade and obtained from various commercial sources. All cell culture reagents were obtained from Invitrogen (Merelbeke, Belgium). […] Test and reference compounds were dissolved in 100% DMSO or H2O to give 1 or 10 mM stock solution. The final DMSO concentration in assays was 0.1% unless otherwise stated. Cell lines generated at UCB Biopharma were human embryonic kidney (HEK) 293 cells expressing human SV2A, SV2B or SV2C proteins. Cells were cultured in Dulbecco’s Modified Eagle medium. The culture medium was supplemented with foetal bovine serum (FBS, 10%), 2 mM L-glutamine, 50 to 100 U/mL penicillin, 50 to 100 µg/mL streptomycin, and 200 µg/mL hygromycin B. Cells were grown at 37 °C with 95% air. Confluent cells were detached by 10 min incubation at 37 °C in phosphate buffered saline (PBS) containing 0.02% EDTA. Culture flasks were washed with 15 mL of ice-cold PBS. The cell suspension was centrifuged at 1500× g for 10 min at 4 °C. The pellet was homogenized in 15 mM Tris-HCl buffer (pH 7.5) containing 2 mM MgCl2, 0.3 mM EDTA, and 1 mM EGTA (buffer A) using a glass/teflon homogenizer. The crude homogenate was subjected to a freeze and thaw cycle in liquid nitrogen and DNAse (1 µL/mL) was then added. […] The radioactivity trapped on the filters was counted by liquid scintillation in a β-counter. […]

SV2A = settings: cited from earlier work

Structure (SMILES) | mean Vt of [18F]UCB-H in the whole brain of the pre-treated group [1] | IC50 (human SV2A) [µM] | pIC50 (affinity measured in vitro) (SV2A)
CC[C@@H](C(N)=O)N1CCCC1=O [SV2AL, levetiracetam] | 6.0 ± 0.3 | 6.31 | 
[11CH3]n1cncc1CN1C[C@@H](c2cc(F)cc(F)c2)CC1=O [[^11C]UCB-A] |  |  | 7.9
